{"source": "paper PMC7343746", "about": "“(2S, 4R)-4-[^18F]Fluoroglutamine for In vivo PET Imaging of Glioma Xenografts in Mice: an Evaluation of Multiple Pharmacokinetic Models” (Molecular Imaging and Biology, 2020)", "key": {"rat BT4C glioma cells": {"system": "rat BT4C glioma cells", "experiment": "Patlak plot (irreversible uptake model), subcutaneous model", "format": "in vivo, Foxn1^nu/nu mouse", "conditions": "for Patlak Ic (AB) y intercept: AB input; for Patlak Ic (PC) y intercept: PC input", "description": "(§1) Image analysis was performed using CARIMAS software published and freely distributed by the Turku PET Center (http://turkupetcentre.fi/carimas/). CT scans were used as rough anatomical reference while tumor regions of interest (ROI) were hand-drawn based upon observed spikes of radioactivity in the PET images at locations correlating with recorded tumor grafts. Control muscle ROIs were drawn on the side opposite to the tumor in the leg flank muscle (based on CT) while the blood ROI was drawn based upon heart anatomical location and observed PET image radioactivity spike during the initial 20 s of imaging in the left ventricle. Standardized uptake values (SUV) were calculated with respect to ROI volume, mean and max tumor radioactivity, total injected radioactivity dose (corrected for tail, cannula, and syringe residual radioactivity), and animal weight, and were additionally presented as tumor-to-background ratio (TBR, tumor-to-healthy brain region for intracranial gliomas and tumor-to-muscle for subcutaneous gliomas) as defined by recent glioma research literature standards. Mean and maximum TBR values were reported as ROI radioactivity per volume divided by mean background radioactivity per volume. The blood radioactivity SUV and gender-specific metabolite-corrected blood radioactivity SUV were then applied to multiple pharmacokinetic models to characterize the flux of the tracer (further described in the “Modeling” section).\n(§2) Using the heart’s left ventricle ROI from the PET data as an uncorrected radioactivity level input and the bioavailable parent-tracer fraction (results: Eqs. 3 and 4 applied to the uncorrected input) as the corrected input, multiple models were investigated to characterize the tissue uptake dynamics. Two-compartment modeling and Logan, Patlak, and Yokoi plots were used to separately model the pharmacokinetics for the gliomas (both subcutaneous and orthotopic loci) and their respective control tissues (healthy muscle and healthy brain, respectively). Where indicated, means plus/minus standard deviations are reported. Difference in parameters for uncorrected versus correct and target tissue versus their respective control regions were tested with students’ paired t tests with P values lower than 0.05 being considered significant."}, "[1]": {"system": "patient-derived BT3 glioma cells", "experiment": "Logan plot (reversible uptake model), orthotopic model", "format": "in vivo, BALB/cOlaHsd-Foxn1^nu mouse", "conditions": "for Logan DV (AB) distribution volume / Logan Ic (AB) y intercept: AB input; for Logan DV (PC) distribution volume / Logan IC (PC) y intercept: PC input", "description": "as §1, §2"}, "[2]": {"conditions": "Bone (femoral condyle) average (n = 6)"}}}
{"smiles": "NC(=O)[C@H]([18F])C[C@H](N)C(=O)O", "note": "[[^18F]FGln, (2S, 4R)-4-[^18F]fluoroglutamine]", "values": [{"measurement": "Patlak Ic (AB) y intercept", "setting": "rat BT4C glioma cells; [2]", "value": "0.5752 ± 0.1597"}, {"measurement": "Patlak Ic (PC) y intercept", "setting": "rat BT4C glioma cells; [2]", "value": "0.3705 ± 0.2561"}, {"measurement": "Patlak Ic (AB) y intercept", "setting": "rat BT4C glioma cells; Flank muscle average (n = 6)", "value": "0.5790 ± 0.1835"}, {"measurement": "Patlak Ic (PC) y intercept", "setting": "rat BT4C glioma cells; Flank muscle average (n = 6)", "value": "0.8154 ± 0.2742"}, {"measurement": "Patlak Ic (AB) y intercept", "setting": "rat BT4C glioma cells; Flank tumor average (n = 6)", "value": "1.0521 ± 0.2524"}, {"measurement": "Patlak Ic (PC) y intercept", "setting": "rat BT4C glioma cells; Flank tumor average (n = 6)", "value": "1.5318 ± 0.3888"}, {"measurement": "Patlak Ic (AB) y intercept", "setting": "rat BT4C glioma cells; Neck tumor average (n = 6)", "value": "1.2083 ± 0.1715"}, {"measurement": "Patlak Ic (PC) y intercept", "setting": "rat BT4C glioma cells; Neck tumor average (n = 6)", "value": "1.7708 ± 0.2668"}, {"measurement": "Irreversible uptake rate relative to reversible uptake rates", "setting": "rat BT4C glioma cells; Patlak versus reversible models", "value": "roughly 15 times lower"}, {"measurement": "Logan DV (AB) distribution volume", "setting": "[1]; Subject A brain (control)", "value": 1.61}, {"measurement": "Logan Ic (AB) y intercept", "setting": "[1]; Subject A brain (control)", "value": -14.15}, {"measurement": "Logan DV (PC) distribution volume", "setting": "[1]; Subject A brain (control)", "value": 2.97}, {"measurement": "Logan IC (PC) y intercept", "setting": "[1]; Subject A brain (control)", "value": -25.16}, {"measurement": "Logan DV (AB) distribution volume", "setting": "[1]; Subject A glioma max.", "value": 0.34}, {"measurement": "Logan Ic (AB) y intercept", "setting": "[1]; Subject A glioma max.", "value": -18.72}, {"measurement": "Logan DV (PC) distribution volume", "setting": "[1]; Subject A glioma max.", "value": 0.67}, {"measurement": "Logan IC (PC) y intercept", "setting": "[1]; Subject A glioma max.", "value": -34.83}, {"measurement": "Logan DV (AB) distribution volume", "setting": "[1]; Subject A o.t. glioma", "value": 1.51}, {"measurement": "Logan Ic (AB) y intercept", "setting": "[1]; Subject A o.t. glioma", "value": -19.69}, {"measurement": "Logan DV (PC) distribution volume", "setting": "[1]; Subject A o.t. glioma", "value": 2.97}, {"measurement": "Logan IC (PC) y intercept", "setting": "[1]; Subject A o.t. glioma", "value": -36.03}, {"measurement": "Logan Ic (AB) y intercept", "setting": "[1]; Subject B brain (control)", "value": -61.91}, {"measurement": "Logan DV (PC) distribution volume", "setting": "[1]; Subject B brain (control)", "value": 2.57}, {"measurement": "Logan IC (PC) y intercept", "setting": "[1]; Subject B brain (control)", "value": -50.78}, {"measurement": "Logan DV (AB) distribution volume", "setting": "[1]; Subject B glioma max.", "value": 1.27}, {"measurement": "Logan Ic (AB) y intercept", "setting": "[1]; Subject B glioma max.", "value": -26.85}, {"measurement": "Logan DV (PC) distribution volume", "setting": "[1]; Subject B glioma max.", "value": 0.60}, {"measurement": "Logan IC (PC) y intercept", "setting": "[1]; Subject B glioma max.", "value": -36.40}, {"measurement": "Logan DV (AB) distribution volume", "setting": "[1]; Subject B o.t. glioma", "value": 0.32}, {"measurement": "Logan Ic (AB) y intercept", "setting": "[1]; Subject B o.t. glioma", "value": -20.23}, {"measurement": "Logan DV (PC) distribution volume", "setting": "[1]; Subject B o.t. glioma", "value": 1.95}, {"measurement": "Logan IC (PC) y intercept", "setting": "[1]; Subject B o.t. glioma", "value": -41.27}]}
